By IC50 is commonly meant the concentration that inhibits the measured activity by half.

One assay has as its target TYK2 (Homo sapiens (Human), UniProt P29597). Kind of assay: JAK Caliper Enzyme Assay at 1 mM ATP (TYK2). The assay is classed as biochemical. The following applies: Caliper assay at 1 mM ATP.
The subject of assay [1] is rhIFNγ stimulated STAT-3 phosphorylation in the A549 human epithelial cell line. The experiment in a line: A549 Cell Assay: Inhibition of pSTAT3. Type of assay: cell-based. The following applies: Homo sapiens; A549 cells. Put shortly: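 A549 cells cultured 18 h were preincubated 1 h at 37° C with compound (0.3 nM to 10 μM, 0.1% DMSO) in DMEM with 0.2% BSA, then stimulated with 20 ng/mL rhIFNγ for 30 min. pSTAT3 Tyr705 in the lysates was measured by MSD immunoassay and expressed as percent inhibition.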

A further assay has as its target JAK2 (Homo sapiens (Human), UniProt O60674). Kind of assay: JAK Caliper Enzyme Assay at 1 mM ATP (JAK2). Type of assay: biochemical. The note with it: Caliper assay at 1 mM ATP.
Another assay deals with JAK1 (Homo sapiens (Human), UniProt P23458). The experiment in a line: JAK Caliper Enzyme Assay at 1 mM ATP (JAK1). The assay is classed as biochemical. The note with it: Caliper assay at 1 mM ATP.
Chain of JAK1 (P23458 whole entry): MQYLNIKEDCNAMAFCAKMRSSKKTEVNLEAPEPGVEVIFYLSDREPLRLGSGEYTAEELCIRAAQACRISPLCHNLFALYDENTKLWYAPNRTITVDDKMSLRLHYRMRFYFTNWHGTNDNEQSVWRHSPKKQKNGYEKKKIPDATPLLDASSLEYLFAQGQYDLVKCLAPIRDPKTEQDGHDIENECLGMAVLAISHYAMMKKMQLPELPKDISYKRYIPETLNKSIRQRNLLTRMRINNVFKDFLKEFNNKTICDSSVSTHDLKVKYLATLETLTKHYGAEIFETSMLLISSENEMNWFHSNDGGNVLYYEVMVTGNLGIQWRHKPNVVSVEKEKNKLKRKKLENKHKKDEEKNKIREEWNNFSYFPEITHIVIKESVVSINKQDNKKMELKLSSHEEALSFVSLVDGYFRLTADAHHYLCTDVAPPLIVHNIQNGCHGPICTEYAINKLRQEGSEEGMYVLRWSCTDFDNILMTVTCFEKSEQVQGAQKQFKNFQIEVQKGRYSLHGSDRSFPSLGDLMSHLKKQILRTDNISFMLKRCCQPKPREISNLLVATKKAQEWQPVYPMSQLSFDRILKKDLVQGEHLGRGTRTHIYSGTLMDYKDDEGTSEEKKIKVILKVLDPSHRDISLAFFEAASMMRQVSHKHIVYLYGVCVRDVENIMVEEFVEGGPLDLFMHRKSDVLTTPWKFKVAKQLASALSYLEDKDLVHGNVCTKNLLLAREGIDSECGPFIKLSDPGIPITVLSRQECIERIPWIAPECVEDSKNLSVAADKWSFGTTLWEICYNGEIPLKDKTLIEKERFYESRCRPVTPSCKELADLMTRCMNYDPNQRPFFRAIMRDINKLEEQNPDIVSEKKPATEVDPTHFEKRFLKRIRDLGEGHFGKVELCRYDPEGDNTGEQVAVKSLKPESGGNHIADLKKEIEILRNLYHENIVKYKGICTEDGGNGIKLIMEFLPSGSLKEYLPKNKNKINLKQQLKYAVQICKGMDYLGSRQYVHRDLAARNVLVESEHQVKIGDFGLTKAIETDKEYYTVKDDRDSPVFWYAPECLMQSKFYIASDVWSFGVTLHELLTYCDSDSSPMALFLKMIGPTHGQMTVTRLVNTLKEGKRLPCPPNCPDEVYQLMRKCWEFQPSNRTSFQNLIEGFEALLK
The target of another assay is JAK3 (Homo sapiens (Human), UniProt P52333). Kind of assay: JAK Caliper Enzyme Assay at 1 mM ATP (JAK3). The assay is classed as biochemical. The following applies: Caliper assay at 1 mM ATP.
Chain of JAK3 (P52333 whole entry): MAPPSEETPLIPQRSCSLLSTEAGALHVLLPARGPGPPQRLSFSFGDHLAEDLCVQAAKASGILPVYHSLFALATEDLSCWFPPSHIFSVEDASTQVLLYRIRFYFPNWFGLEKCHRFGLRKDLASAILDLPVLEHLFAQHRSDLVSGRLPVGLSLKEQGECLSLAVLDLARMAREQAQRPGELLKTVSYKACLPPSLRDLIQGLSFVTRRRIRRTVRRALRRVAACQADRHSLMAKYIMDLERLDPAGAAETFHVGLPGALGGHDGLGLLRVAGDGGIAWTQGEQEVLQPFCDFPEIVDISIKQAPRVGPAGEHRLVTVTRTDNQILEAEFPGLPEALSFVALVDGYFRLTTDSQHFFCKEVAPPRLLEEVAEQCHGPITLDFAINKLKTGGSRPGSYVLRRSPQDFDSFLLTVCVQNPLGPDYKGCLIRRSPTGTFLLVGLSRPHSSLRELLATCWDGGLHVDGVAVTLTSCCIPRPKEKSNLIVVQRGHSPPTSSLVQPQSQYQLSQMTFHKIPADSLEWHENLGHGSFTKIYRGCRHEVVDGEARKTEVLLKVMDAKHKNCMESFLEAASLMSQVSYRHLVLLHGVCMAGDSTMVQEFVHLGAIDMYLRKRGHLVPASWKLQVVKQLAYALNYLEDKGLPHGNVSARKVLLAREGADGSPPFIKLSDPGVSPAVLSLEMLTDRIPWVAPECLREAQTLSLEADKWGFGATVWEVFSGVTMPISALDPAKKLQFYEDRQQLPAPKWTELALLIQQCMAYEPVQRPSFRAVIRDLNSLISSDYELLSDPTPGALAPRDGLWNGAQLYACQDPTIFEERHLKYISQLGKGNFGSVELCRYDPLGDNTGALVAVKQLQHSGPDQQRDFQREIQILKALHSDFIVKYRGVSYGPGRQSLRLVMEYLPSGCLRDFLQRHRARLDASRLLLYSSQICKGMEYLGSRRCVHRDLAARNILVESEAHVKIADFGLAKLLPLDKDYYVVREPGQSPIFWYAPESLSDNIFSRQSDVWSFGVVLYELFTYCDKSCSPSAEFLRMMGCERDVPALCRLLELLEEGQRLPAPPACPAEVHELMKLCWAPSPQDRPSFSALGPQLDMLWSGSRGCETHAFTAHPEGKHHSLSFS

Chain of JAK2 (O60674 whole entry): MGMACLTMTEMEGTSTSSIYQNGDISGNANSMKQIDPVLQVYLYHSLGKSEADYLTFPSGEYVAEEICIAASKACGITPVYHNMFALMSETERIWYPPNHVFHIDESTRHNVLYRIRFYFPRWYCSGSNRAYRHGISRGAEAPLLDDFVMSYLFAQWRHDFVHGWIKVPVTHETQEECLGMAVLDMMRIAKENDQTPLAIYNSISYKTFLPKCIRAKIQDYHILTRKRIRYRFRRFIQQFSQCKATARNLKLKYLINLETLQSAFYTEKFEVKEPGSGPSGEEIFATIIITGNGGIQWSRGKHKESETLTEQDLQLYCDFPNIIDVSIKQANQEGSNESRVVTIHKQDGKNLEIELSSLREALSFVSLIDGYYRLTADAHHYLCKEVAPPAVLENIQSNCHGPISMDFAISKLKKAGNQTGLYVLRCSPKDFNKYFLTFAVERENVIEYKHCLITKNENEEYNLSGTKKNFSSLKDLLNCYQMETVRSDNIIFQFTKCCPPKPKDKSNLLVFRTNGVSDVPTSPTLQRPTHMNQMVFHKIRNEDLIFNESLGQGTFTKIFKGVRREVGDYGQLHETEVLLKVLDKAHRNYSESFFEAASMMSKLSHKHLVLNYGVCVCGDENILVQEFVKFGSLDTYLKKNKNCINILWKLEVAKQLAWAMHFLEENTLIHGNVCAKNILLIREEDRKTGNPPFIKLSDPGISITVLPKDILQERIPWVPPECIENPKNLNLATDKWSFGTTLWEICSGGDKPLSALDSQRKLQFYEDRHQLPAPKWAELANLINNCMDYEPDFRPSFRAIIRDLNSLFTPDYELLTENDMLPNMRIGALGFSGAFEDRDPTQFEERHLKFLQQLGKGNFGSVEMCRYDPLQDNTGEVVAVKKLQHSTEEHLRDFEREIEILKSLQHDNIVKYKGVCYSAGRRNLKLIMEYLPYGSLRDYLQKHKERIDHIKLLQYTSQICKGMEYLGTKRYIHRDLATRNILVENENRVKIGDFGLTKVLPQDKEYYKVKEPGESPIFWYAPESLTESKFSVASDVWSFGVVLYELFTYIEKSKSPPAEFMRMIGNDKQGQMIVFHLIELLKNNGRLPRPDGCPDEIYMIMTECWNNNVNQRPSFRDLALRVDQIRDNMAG
Chain of TYK2 (P29597 whole entry): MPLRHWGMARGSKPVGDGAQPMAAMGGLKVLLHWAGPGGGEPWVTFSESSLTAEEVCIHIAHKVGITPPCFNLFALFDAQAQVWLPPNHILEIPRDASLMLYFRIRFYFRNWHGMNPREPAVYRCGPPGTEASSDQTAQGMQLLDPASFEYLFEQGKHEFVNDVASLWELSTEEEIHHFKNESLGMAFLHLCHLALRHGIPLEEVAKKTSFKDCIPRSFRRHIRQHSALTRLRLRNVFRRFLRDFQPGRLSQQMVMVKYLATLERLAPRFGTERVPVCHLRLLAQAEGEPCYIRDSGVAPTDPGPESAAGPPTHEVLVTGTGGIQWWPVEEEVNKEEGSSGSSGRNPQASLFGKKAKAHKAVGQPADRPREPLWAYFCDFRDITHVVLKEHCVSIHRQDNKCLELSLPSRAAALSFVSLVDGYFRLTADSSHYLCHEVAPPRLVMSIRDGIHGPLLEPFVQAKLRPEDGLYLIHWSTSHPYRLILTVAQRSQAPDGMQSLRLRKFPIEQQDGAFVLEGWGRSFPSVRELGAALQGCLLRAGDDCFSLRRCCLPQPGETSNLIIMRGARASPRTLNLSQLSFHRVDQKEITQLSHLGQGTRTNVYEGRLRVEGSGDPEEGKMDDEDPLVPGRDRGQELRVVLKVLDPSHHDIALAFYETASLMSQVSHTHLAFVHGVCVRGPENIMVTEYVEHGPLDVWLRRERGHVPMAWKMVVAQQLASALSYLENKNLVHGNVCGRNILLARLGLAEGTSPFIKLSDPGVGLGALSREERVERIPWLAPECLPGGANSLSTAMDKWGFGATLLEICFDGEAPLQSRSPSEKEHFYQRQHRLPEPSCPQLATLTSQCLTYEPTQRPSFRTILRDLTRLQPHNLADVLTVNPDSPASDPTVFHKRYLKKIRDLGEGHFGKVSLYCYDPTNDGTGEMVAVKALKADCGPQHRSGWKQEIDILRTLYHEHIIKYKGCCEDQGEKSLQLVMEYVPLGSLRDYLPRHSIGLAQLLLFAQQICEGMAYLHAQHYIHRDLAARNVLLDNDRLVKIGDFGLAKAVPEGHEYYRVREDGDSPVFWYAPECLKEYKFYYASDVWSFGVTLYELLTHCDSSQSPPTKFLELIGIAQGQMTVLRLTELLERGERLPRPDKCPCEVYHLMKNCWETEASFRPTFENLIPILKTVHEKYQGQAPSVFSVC

For `CNC(=O)c1n[nH]c2cc(-c3cc(F)c(O)cc3CC(F)(F)F)nc(NCc3ccc(O)cc3N(C)S(C)(=O)=O)c12` [Example 33, 6-[5-fluoro-4-hydroxy-2-(2,2,2-trifluoroethyl)phenyl]-4-({4-hydroxy-2-[methyl(methylsulfonyl)amino]benzyl}amino)-N-methyl-1H-pyrazolo[4,3-c]pyridine-3-carboxamide], the IC50 was found to be 282 nM against TYK2; 490 nM in assay [1]; 25 nM at JAK2; 5.7 nM at JAK1; 75.2 nM at JAK3.

For `CCc1cc(O)c(F)cc1-c1cc2[nH]nc(C(=O)NC)c2c(NCc2ccccc2N(C)S(=O)(=O)c2ccccc2)n1` [Example 22, 6-(2-ethyl-5-fluoro-4-hydroxyphenyl)-N-methyl-4-({2-[methyl(phenylsulfonyl)amino]benzyl}amino)-1H-pyrazolo[4,3-c]pyridine-3-carboxamide], the concentration for half-maximal inhibition (IC50) on TYK2 was found to be 59.1 nM; in assay [1], 52.8 nM; against JAK2, 81.3 nM; against JAK1, 17.5 nM; against JAK3, 359 nM.

As for `CCN(c1ccccc1CNc1nc(-c2cc(F)c(O)cc2CC(F)(F)F)cc2[nH]nc(C(=O)NC)c12)S(C)(=O)=O` [Example 12, 4-({2-[ethyl(methylsulfonyl)amino]benzyl}amino)-6-[5-fluoro-4-hydroxy-2-(2,2,2-trifluoroethyl)phenyl]-N-methyl-1H-pyrazolo[4,3-c]pyridine-3-carboxamide], the IC50 against TYK2 amounted to 24.8 nM; in assay [1], 44.9 nM; against JAK2, 31.5 nM; against JAK1, 6.4 nM; against JAK3 it was 121 nM.

The values are drawn from US10022376B2 (Pfizer Inc., priority 2014, dated 2018).
